Data published in publication PMC6372542 (Frontiers in Pediatrics, 2019).
Several values for one entry are separate records, joined by “and”; a condition that tells them apart may be missing. Identical values can stand only once. Like-named read-outs stand apart in the source and are kept apart here.

Key:
[1] = Plasma concentrations of protease inhibitors, ritonavir and efavirenz (antiretroviral exposures); conditions: for AUC / Cmax: human, in vivo; for Clast: plasma, median (interquartile range), range for lopinavir, median (range) for efavirenz
Source text: (§1) Study procedures were standardized across multiple study arms. The single pharmacokinetic visit included a medication history, adherence survey, and a CYP2D6 phenotype assessment (the other psychotropic study medications were primarily metabolized by CYP 2D6). Participants with HIV had to be taking their antiretroviral medications consistently for at least 4 weeks prior to sampling. […] Plasma samples were drawn at pre-dose and 2, 4, 6, 12, and 24-h post-dose.
Plasma concentrations of primary protease inhibitors, ritonavir and efavirenz were measured at the University of California San Diego Pediatric Pharmacology Laboratory by validated reverse phase high performance liquid chromatography or mass spectrometry methods.

[2] = cited from earlier work; for half-life: adolescents, ref [17]
[3] = Sertraline population pharmacokinetics (NONMEM, one-compartment model at steady-state); assay type: in vivo, human; conditions: for V/F / ka: typical population value, Estimate (% SE)
Procedure: A one-compartment model at steady-state with first-order absorption and elimination best described the data (ADVAN2 TRANS2, FOCE with interaction). A combined (additive and proportional) residual error model was used. Covariates were screened individually on each pharmacokinetic parameter (CL/F, V/F, and ka). For all models, goodness of fit were assessed with diagnostic plots. All covariates that improved model fit at p < 0.05 were included in the multivariate screen.

[4] = Non-compartmental plasma pharmacokinetics of sertraline and N-desmethylsertraline in HIV-infected and uninfected youth (IMPAACT P1080); conditions: for C0: pre-dose plasma; for CL/F: po, non-compartmental apparent oral clearance; for concentration: read-out: Norm-C0
Source text: International Maternal Pediatric Adolescent AIDS Clinical Trials Network (IMPAACT) P1080 was a multicenter, pilot study of psychiatric and antiretroviral medication concentrations in HIV-1-infected and uninfected youth.
as §1
Analytes and internal standard were extracted with 600 μL of acetonitrile from 200 μL of plasma, then eluted from a Gemini C18 column in under 4 min using acetonitrile/water/formic acid (85:15:0.1, v/v/v) as the mobile phase.
The area under the concentration vs. time curve from time 0–24 h post dose (AUC0−24) was estimated using the trapezoidal rule. Apparent oral clearance (CL/F), where F is bioavailability, was calculated as dose divided by AUC0−24. The apparent volume of distribution (V/F) was determined as CL/F divided by k, where k is the terminal slope of the log plasma concentration-time curve. The half-life (t1/2) was calculated as 0.693/k. All concentration data were normalized to dose (100 mg) and to weight (70 kg). Non-compartmental parameters were estimated with Phoenix® WinNonlin® (Certara L.P. (Pharsight), St. Louis, MO). Pharmacokinetic parameters were compared between HIV(–) and PI/r cohorts with Wilcoxon rank-sum tests, two-sided with significance set to 0.05. Statistical comparisons were not made with the EFV group due to the low enrollment/accrual in this cohort (n = 3).

[5] = EFV cohort n = 3, median (minimum, maximum)
[6] = PI/r cohort n = 12, median (interquartile range)

In the case of `COC(=O)N[C@H](C(=O)N[C@@H](Cc1ccccc1)[C@@H](O)CN(Cc1ccc(-c2ccccn2)cc1)NC(=O)[C@@H](NC(=O)OC)C(C)(C)C)C(C)(C)C` [Atazanavir], the AUC [1] is reported as 27200 ng·h/mL, the Cmax [1] is reported as 3800 ng/mL and the Clast [1] is reported as 1.2 (0.9, 2.6) μg/mL.

For `O=C1Nc2ccc(Cl)cc2[C@@](C#CC2CC2)(C(F)(F)F)O1` [Efavirenz], the AUC [1] was 24500 ng·h/mL, the Cmax [1] was 1300 ng/mL and the Clast [1] was 1.3 (1.3, 3.4) μg/mL.

For `N[C@H]1CC[C@@H](c2ccc(Cl)c(Cl)c2)c2ccccc21` [N-desmethylsertraline], the elimination half-life ([2]; metabolite, ref [5]) is listed as 62 to 104 h.

For `CC(C)c1nc(CN(C)C(=O)N[C@H](C(=O)N[C@@H](Cc2ccccc2)C[C@H](O)[C@H](Cc2ccccc2)NC(=O)OCc2cncs2)C(C)C)cs1` [Ritonavir], the AUC [1] was 4900 ng·h/mL, the Cmax [1] was 600 ng/mL and the Clast [1] was 0.2 (0.1, 0.4) μg/mL.

With `CN[C@H]1CC[C@@H](c2ccc(Cl)c(Cl)c2)c2ccccc21` [Sertraline] the “clearance higher than in geriatric population pharmacokinetic study” value ([3]; 115 L/h vs 83.1 L/h in geriatric patients with Alzheimer's Disease) was 38%, the V/F ([3]; base model) was 53.8 L/kg and the ka ([3]; base model) was 0.45 1/h and 0.45 (16.2) 1/h. The V/F ([3]; final model) was 44.6 L/kg, the ka ([3]; final model) was 0.42 1/h and 0.42 (14.7) 1/h and the clearance ([3]; human, plasma, oral, population model, for a typical 70 kg patient, read-out: estimated clearance (converted)) was 1920 mL/min. For the same compound, the “sertraline exposures lower in EFV participants than HIV(–) and PI/r groups” value ([4]; EFV cohort n = 3) was ~ 50%, the C24 ([4]; EFV cohort n = 3, 24 h post-dose, median (minimum, maximum)) was 4.2 (2.9, 5.9) ng/mL and the Tmax [4, 5] was 6 (4, 6) hr. For the same compound, the C0 [4, 5] was 6 ng/mL and 6.0 (3.0, 7.0) ng/mL, the “normalized trough concentrations, C0 and C24” value ([4]; HIV(-) and PI/r groups) was 18 to 33 ng/mL and the “sertraline exposure lower in the PI/r cohort than in HIV(–)” value ([4]; PI/r cohort compared to HIV(–)) was ~ 40% and 30–40%. The Tmax [4, 6] was 4 (4, 6) hr, the C0 [4, 6] was 10.0 (7.5, 15.9) ng/mL and the Tmax ([4]; human, in vivo) was 4 h. For the same compound, the Cmax ([4]; human, in vivo, 0.7 mg/kg, Cmax, EFV cohort n = 3, median (minimum, maximum)) was 13.2 ng/mL, the Cmax ([4]; human, in vivo, 0.9 mg/kg, Cmax, PI/r cohort n = 12, median (interquartile range)) was 34.3 ng/mL and the Cmax ([4]; human, in vivo, 1.3 mg/kg, Cmax, HIV(-) cohort n = 16, median (interquartile range)) was 46.7 ng/mL. For the same compound, the AUC(0-t) ([4]; human, in vivo, 100 mg, Norm-AUC0−24, EFV cohort n = 3, normalized to a 100 mg once daily dose and a weight of 70 kg, median (minimum, maximum)) was 473 ng·h/mL, the AUC(0-t) ([4]; human, in vivo, 100 mg, Norm-AUC0−24, HIV(-) cohort n = 16, normalized to a 100 mg once daily dose and a weight of 70 kg, median (interquartile range)) was 1180 ng·h/mL and the AUC(0-t) ([4]; human, in vivo, 100 mg, Norm-AUC0−24, PI/r cohort n = 12, normalized to a 100 mg once daily dose and a weight of 70 kg, median (interquartile range)) was 791 ng·h/mL. The concentration at 24 h ([4]; human, in vivo, 100 mg, Norm-C24, EFV cohort n = 3, normalized to 100 mg once daily and 70 kg, median (minimum, maximum)) was 12.8 ng/mL, the concentration at 24 h ([4]; human, in vivo, 100 mg, Norm-C24, HIV(-) cohort n = 16, normalized to 100 mg once daily and 70 kg, median (interquartile range)) was 32.7 ng/mL and the concentration at 24 h ([4]; human, in vivo, 100 mg, Norm-C24, PI/r cohort n = 12, normalized to 100 mg once daily and 70 kg, median (interquartile range)) was 20.1 ng/mL. For the same compound, the Cmax ([4]; human, in vivo, 100 mg, Norm-Cmax, EFV cohort n = 3, normalized to 100 mg once daily and 70 kg, median (minimum, maximum)) was 28.8 ng/mL, the Cmax ([4]; human, in vivo, 100 mg, Norm-Cmax, HIV(-) cohort n = 16, normalized to 100 mg once daily and 70 kg, median (interquartile range)) was 78.3 ng/mL and the Cmax ([4]; human, in vivo, 100 mg, Norm-Cmax, PI/r cohort n = 12, normalized to 100 mg once daily and 70 kg, median (interquartile range)) was 46.9 ng/mL. For the same compound, the AUC(0-t) ([4]; human, in vivo, AUC0−24, EFV cohort n = 3, plasma, steady state, median (minimum, maximum)) was 145 ng·h/mL, the AUC(0-t) ([4]; human, in vivo, AUC0−24, HIV(-) cohort n = 16, plasma, steady state, median (interquartile range)) was 652 ng·h/mL and the AUC(0-t) ([4]; human, in vivo, AUC0−24, PI/r cohort n = 12, plasma, steady state, median (interquartile range)) was 486 ng·h/mL. The concentration at 24 h ([4]; human, in vivo, C24, EFV cohort n = 3, 24 h post-dose, median (minimum, maximum)) was 4.2 ng/mL, the concentration at 24 h ([4]; human, in vivo, C24, HIV(-) cohort n = 16, 24 h post-dose, median (interquartile range)) was 17.5 ng/mL and the concentration at 24 h ([4]; human, in vivo, C24, PI/r cohort n = 12, 24 h post-dose, median (interquartile range)) was 12.6 ng/mL. For the same compound, the half-life ([4]; human, in vivo, T1/2, EFV cohort n = 3, median (minimum, maximum)) was 11.1 h, the half-life ([4]; human, in vivo, T1/2, HIV(-) cohort n = 16, median (interquartile range)) was 26.4 h and the half-life ([4]; human, in vivo, T1/2, PI/r cohort n = 12, median (interquartile range)) was 18.1 h. For the same compound, the CL/F ([4]; human, in vivo, EFV cohort n = 3, median (minimum, maximum)) was 75 mL/min/kg, the CL/F ([4]; human, in vivo, HIV(-) cohort n = 16, median (interquartile range)) was 23.3 mL/min/kg and the CL/F ([4]; human, in vivo, PI/r cohort n = 12, median (interquartile range)) was 26.7 mL/min/kg. It also gave a concentration ([4]; EFV cohort n = 3, normalized to 100 mg once daily and 70 kg, median (minimum, maximum)) of 13.1 ng/mL, a concentration ([4]; HIV(-) cohort n = 16, normalized to 100 mg once daily and 70 kg, median (interquartile range)) of 33.3 ng/mL and a concentration ([4]; PI/r cohort n = 12, normalized to 100 mg once daily and 70 kg, median (interquartile range)) of 17.8 ng/mL. For the same compound, the half-life ([2]; single dose) was 26.7 h, the half-life ([2]; steady-state) was 15.3 h and the elimination half-life ([2]; adults, children, and adolescents, ref [5]) was “about 27 h”. For the same compound, the “decrease of sertraline exposure (AUC0−24) by efavirenz” value ([2]; adults, concomitant efavirenz, ref [13]) was ~ 40%, the “AUC0−24” value ([2]; after multiple dosing in prior adult studies, normalized to a 100 mg dose, ref [20]) was 1038 to 1532 ng·h/mL and the half-life at steady-state ([2]; lower end of dose range of 50–200 mg, ref [15], [17]) was 15.3 h. The “sertraline exposure (AUC0−24 and Cmax) lower in children and adolescents” value ([2]; plasma concentration adjusted for weight, compared to adults, ref [5], [9]) was ~ 22%, the clearance ([2]; population pharmacokinetic study of geriatric patients (median age = 76 years) with Alzheimer's Disease, ref [23]) was 83.1 L/h and the “AUC0−24” value ([2]; previous pediatric studies, normalized to 100 mg dose and 70 kg weight, ref [15], [17]) was 883 to 2,535 ng·h/mL. The median sertraline trough ([2]; therapeutic drug monitoring program, 100 mg daily doses, IQR 12–30 ng/mL, ref [21]) was 20 ng/mL and the half-life at steady-state ([2]; upper end of dose range of 50–200 mg, ref [15], [17]) was 27.2 h.
